Read-outs that look alike come from different tables or passages of the source.
Key:
[1] = Maximum tolerated dose of Compound 4 (body weight); format: in vivo
Method: The maximum tolerated dose (MTD) of compound 4 was evaluated in nude mice. In this study 4 groups were established, each with five mice per group. The compound was formulated in a suspension of 5% Tween-80/H2O. Compound 4 was administered orally at dose levels of 120, 60, and 30 mg/kg as QD for five days. The body weight was measured daily for a total of 11 days.

[2] = Pharmacokinetics of Compound 4 in mice (IV and PO); format: in vivo, BALB/c nude female mice
Method: The pharmacokinetics of Compound 4 was assessed in BALB/c nude female mice. Doses were 2 mg/kg administered intravenously (IV) and 20 mg/kg administered orally (PO). The intravenous formulation was administered in 1% N-Methyl-2-pyrrolidone (NMP) in water and was a clear solution. The per os solution was in 1.3% NMP+5% Tween-20® in a clear solution.

[3] = female, BALB/c nude, mouse, plasma, intravenous, 2 mg/kg, 2 mg/kg IV, G1, read-out: Plasma concentration G1
[4] = female, BALB/c nude, mouse, plasma, intravenous, 2 mg/kg, 2 mg/kg IV, G2, read-out: Plasma concentration G2
[5] = female, BALB/c nude, mouse, plasma, intravenous, 2 mg/kg, 2 mg/kg IV, G3, read-out: Plasma concentration G3
[6] = female, BALB/c nude, mouse, plasma, intravenous, 2 mg/kg, 2 mg/kg IV, mean, read-out: Plasma concentration Mean IV
[7] = female, BALB/c nude, mouse, plasma, oral, 20 mg/kg, 20 mg/kg PO, G4, read-out: Plasma concentration G4
[8] = female, BALB/c nude, mouse, plasma, oral, 20 mg/kg, 20 mg/kg PO, G5, read-out: Plasma concentration G5
[9] = female, BALB/c nude, mouse, plasma, oral, 20 mg/kg, 20 mg/kg PO, G6, read-out: Plasma concentration G6
[10] = female, BALB/c nude, mouse, plasma, oral, 20 mg/kg, 20 mg/kg PO, mean, read-out: Plasma concentration Mean PO
[11] = female, BALB/c nude, mouse, plasma, 2 mg/kg IV
[12] = female, BALB/c nude, mouse, plasma, 20 mg/kg PO

## NCCCOc1cc2ccccc2cc1C(=O)NCCCOc1cc2ccccc2cc1C(=O)Nc1ccc(Cl)cc1O [Compound 4]
[1]; PO 120, 60, 30 mg/kg QD for five days, body weight 11 days
  effect on mouse body weight: no different from vehicle
[1]; doses as high as 120 mg/kg per os, QD for five days
  tolerability: well-tolerated
[2]; 2 mg/kg IV
  CI: 12.7 mL/min/kg
[2]; [3]
  concentration at 0.083 hr: 1610 ng/mL
  concentration at 0.25 hr: 1140 ng/mL
  concentration at 0.5 hr: 1130 ng/mL
  concentration at 1 hr: 528 ng/mL
  concentration at 2 hr: 275 ng/mL
  concentration at 4 hr: 59.9 ng/mL
  concentration at 8 hr: 30.2 ng/mL
  concentration at 24 hr: 15.3 ng/mL
[2]; [4]
  concentration at 0.083 hr: 1980 ng/mL
  concentration at 0.25 hr: 1900 ng/mL
  concentration at 0.5 hr: 966 ng/mL
  concentration at 1 hr: 378 ng/mL
  concentration at 2 hr: 178 ng/mL
  concentration at 4 hr: 71 ng/mL
  concentration at 8 hr: 58.7 ng/mL
  concentration at 24 hr: 16.4 ng/mL
[2]; [5]
  concentration at 0.083 hr: 1540 ng/mL
  concentration at 0.25 hr: 1610 ng/mL
  concentration at 0.5 hr: 1170 ng/mL
  concentration at 1 hr: 419 ng/mL
  concentration at 2 hr: 105 ng/mL
  concentration at 4 hr: 58.1 ng/mL
  concentration at 8 hr: 56.6 ng/mL
  concentration at 24 hr: 13.3 ng/mL
[2]; [6]
  concentration at 0.083 hr: 1710 ng/mL
  concentration at 0.25 hr: 1550 ng/mL
  concentration at 0.5 hr: 1090 ng/mL
  concentration at 1 hr: 442 ng/mL
  concentration at 2 hr: 186 ng/mL
  concentration at 4 hr: 63 ng/mL
  concentration at 8 hr: 48.5 ng/mL
  concentration at 24 hr: 15 ng/mL
[2]; [7]
  concentration at 0.25 hr: 75.5 ng/mL
  concentration at 0.5 hr: 92 ng/mL
  concentration at 1 hr: 402 ng/mL
  concentration at 2 hr: 353 ng/mL
  concentration at 4 hr: 128 ng/mL
  concentration at 8 hr: 45.8 ng/mL
  concentration at 12 hr: 46 ng/mL
  concentration at 24 hr: 7.2 ng/mL
[2]; [8]
  concentration at 0.25 hr: 92.7 ng/mL
  concentration at 0.5 hr: 82.4 ng/mL
  concentration at 1 hr: 465 ng/mL
  concentration at 2 hr: 75 ng/mL
  concentration at 4 hr: 65.9 ng/mL
  concentration at 8 hr: 30.1 ng/mL
  concentration at 12 hr: 47.6 ng/mL
  concentration at 24 hr: 12.9 ng/mL
[2]; [9]
  concentration at 0.25 hr: 101 ng/mL
  concentration at 0.5 hr: 166 ng/mL
  concentration at 1 hr: 139 ng/mL
  concentration at 2 hr: 269 ng/mL
  concentration at 4 hr: 118 ng/mL
  concentration at 8 hr: 41.7 ng/mL
  concentration at 12 hr: 48.2 ng/mL
  concentration at 24 hr: 34.1 ng/mL
[2]; [10]
  concentration at 0.25 hr: 89.7 ng/mL
  concentration at 0.5 hr: 114 ng/mL
  concentration at 1 hr: 335 ng/mL
  concentration at 2 hr: 232 ng/mL
  concentration at 4 hr: 104 ng/mL
  concentration at 8 hr: 39.2 ng/mL
  concentration at 12 hr: 47.3 ng/mL
  concentration at 24 hr: 18.1 ng/mL
[2]; [11]
  AUC(0-inf): 2630 ng·h/mL
  AUC(0-t): 2420 ng·h/mL
  half-life: 576 min
[2]; female, BALB/c nude, mouse, plasma, 2 mg/kg IV, read-out: Vss
  Vd: 4.8 L/kg
[2]; [12]
  AUC(0-inf): 1860 ng·h/mL
  AUC(0-t): 1620 ng·h/mL
  Cmax: 335 ng/mL
  Tmax: 1 h
  half-life: 546 min
[2]; female, BALB/c nude, mouse, plasma, 20 mg/kg PO vs 2 mg/kg IV
  bioavailability: 7.1%
